Laboratory results as given in patent US5814600A, “Method and composition for treatment of insulin requiring mammals” (Amylin Pharmaceuticals Inc., priority 1994, dated 1998).
Where two headings read alike, the source gives them in different places.

Key:
[1] = test system: rat soleus muscle; format: cell-based
Procedure: Male Harlan Sprague Dawley rats of approximately 200 g mass were used in order to maintain soleus muscle mass less than 40 mg. The animals were fasted for 4 hours prior to sacrifice by decapitation. The skin was stripped from the lower limb which was then pinned out on cork board. The tendo achilles was cut just above os […]. gastrocnemius reflected out from the posterior aspect of the tibia. M. soleus, a small […], 0.55 mm thick flat muscle on the bone surface of m. gastrocnemius was then stripped clear and the perimysium cleaned off using fine scissors and forceps. M. soleus was then split into equal parts using a blade passed antero-posteriorly through the belly of the muscle to obtain a total of 4 muscle strips from each animal. After dissecting the muscle from the animal, it was kept for a short period in physiological saline. The muscle was not held under tension, as reported in other methodologies since in our hands this had no demonstrable effect on the insulin-sensitivity of radioglucose incorporation into glycogen. Muscles were added to 50 mL Erlenmeyer flasks containing 10 mL of a pregassed Krebs-Ringer bicarbonate buffer containing (mM) NaCl 118.5; KCl 5.94; CaCl2 2.54; MgSO4 1.19; KH2 PO4 1.19; NaHCO3 25; glucose 5.5; and recombinant human insulin (Humulin-R, Eli Lilly, Ind.) and either synthetic rat (Bachem, Torrance, Calif. Lot# ZG485) or synthetic human amylin (Bachem, Torrance, Calif. Lot# ZH144) as detailed below. Methods used to determine the nature and purity of rat and human amylin included quantitative amino acid analysis, gas phase amino acid sequencing, reverse phase HPLC and fast-atom-bombardment mass spectrometry. […] Incorporation of mercury into rat amylin may be a feature of many commercially available batches that have already been used in published studies. Since the peptide was bioactive, its action in muscle was expected to at least qualitatively mimic that of true rat amylin. The mercuric method of cyclization was not used in the synthesis of human amylin, which is found by electrospray ionization mass spectrometry and atomic absorption spectroscopy to be mercury-free. Muscles were assigned to different flasks so that the four muscle pieces from each animal were evenly distributed among the different assay conditions. The incubation media were gassed by gently blowing carbogen (95% O2, 5% CO2) over the surface while it was continuously agitated at 37° C. in an oscillating water bath. pH of gassed media at 37° C. was verified as being between 7.1 and 7.4. After a half-hour preincubation, 0.5 μCi of [U-^14 C]-glucose was added to each flask for a further 60 minutes. Each muscle piece was then rapidly removed, trimmed of tendons, blotted, frozen in liquid N2, weighed and then stored at […] for subsequent determination of ^14 C-glycogen. The incubation medium was also frozen for subsequent analysis. The concentration of human amylin present in the medium at the end of the incubation was determined by radioimmunoassay in surfactant-containing buffer. For both human and rat amylin, the actual mass added to the incubation medium was determined by quantitative amino-acid analysis. Each frozen muscle specimen was placed in a vial with 1 mL 60% potassium hydroxide (wt/vol) and digested at 70° C. for 45 minutes under intermittent vigorous agitation. Dissolved glycogen was precipitated onto the walls of the vial by addition of 3 mL absolute ethanol and overnight cooling at -20° C. After centrifugation for 30 minutes at 2000 x-- g, the supernatant was gently aspirated, the glycogen was again washed with ethanol and centrifuged, the ethanol aspirated and the precipitate dried under vacuum. It was important to evaporate all ethanol to avoid quenching during scintillation counting. The remaining glycogen was redissolved in 1 mL water and 4 mL scintillation fluid and counted for ^14 C. […]

[2] = test system: streptozotocin-diabetic rats; test: Liver glycogen in insulin-treated streptozotocin diabetic rats, daily s.c. amylin replacement; format: in vivo, rat; conditions: STZ diabetic rats, insulin replacement only
Procedure: There were 68 male Harlan Sprague Dawley rats (mass 301±3 g) in 8 treatment groups. Animals were housed at 22.7±0.8° C. in a 12:12 hour light:dark cycle (experiments being performed during the light cycle) and fed and watered ad libitum (Diet LM-485, Teklad, Madison, Wis.). The rats were sacrificed for harvesting of livers 4 to 5 hours into the light cycle.
Animals were injected with streptozotocin (Sigma Chemical Company, St Louis, Mo.: Sigma 50130) dissolved in water in a dose of 65 mg/kg into the lateral tail vein. […] Maintaining diabetic rats in this metabolic state optimizes survival. Following one week of established diabetes, animals received once daily s.c. injections of amylin vehicle (water for injection) for 5 days given at the time of the insulin injection.
These animals were treated identically to those in group 1 except that the daily subcutaneous injection contained 3 μg (n=5); 10 μg (n=12); 30 μg (n=5); 100 μg (n=5) or 300 μg (n=5) of rat amylin (Bachem lot# WG485^2/). The bioactivity of the peptide used in these experiments was first verified by bioassay, using inhibition of insulin-stimulated radioglucose incorporation into glycogen in the isolated stripped rat soleus muscle. […] The insulin dose in each of the groups of diabetic animals averaged 1.67 U/animal/day. There were no other observable differences in the required management of the different groups.
These animals were derived from the same stock and housed under the same conditions for the same time as those in groups 1-6, but were given no injections. 24 hours after the fifth daily injection of amylin or water (or an equivalent time after admission to the vivarium in the case of group 7 rats), the non-fasted rats were killed by decapitation and the livers immediately removed and frozen in liquid N2, weighed and stored for subsequent determination of glycogen concentration.
Whole livers were powdered while frozen. Approximately 200 mg of powder was further homogenized in 1.0 mL of 0.6M perchloric acid to denature enzymes. 200 μL of the homogenate was neutralized with 0.5 volumes of 1.0M KHCO3 in either of two acetate buffer solutions, one containing 2.0 mL of 200 mM acetate (pH4.8), the other containing the same but with 18.5 U/mL of amyloglucosidase (EC5 3.2.1.3, from Aspergillus nicer, Sigma A3423, Sigma Chemical Company, St Louis, Mo.) added. Following at least 20 minutes incubation at 23° C., the supernatants were assayed for glucose in an analyzer using D-glucose oxidase immobilized enzyme chemistry (Analyzer model 2300-STAT, YSI, Yellow Springs, Ohio). Purified rabbit liver glycogen (Sigma G8876) used as a standard indicated 98±4% recovery of dissolved glycogen and linearity within the range of observed liver glycogen concentrations (r=0.9994). All reagents were of analytical grade or better.
Statistical comparisons were by Student's t-test routines contained in the SYSTAT system (Systat, Evanston, Ill.). All results are reported as means ± standard error of the mean.

[3] = test system: patients with juvenile-onset diabetes; test: 14-day clinical study: adverse events; format: in vivo, human
From the text: In a 14-day double-blind, placebo controlled clinical study, for example, patients with juvenile-onset diabetes who continued their usual insulin therapy and self-injected tripro-amylin three times daily had lower average blood glucose levels after a test meal than did patients who received insulin and placebo. […] See also Table 2 below. […] These thrice-daily doses of tripro-amylin reflect per day dosages of, respectively, 90, 300, and 900 micrograms per patient. For a patient of average weight, about 70 kg, these reflect doses of 1.3 μg/kg/day, 4.3 μg/kg/day, and 12.9 μg/kg/day. An average per day insulin dose is about 50 units, or 2000 micrograms.
The only adverse events which led a limited number of patients to discontinue the study were gastrointestinal side effects, mainly nausea, which were more frequent only in those patients receiving higher doses of drug. About 20% of patients in the mid- and high-dose groups who reported nausea also experienced vomiting on one or more occasions.

[4] = test system: patients with juvenile-onset diabetes; test: 14-day clinical study: insulin challenge to induce hypoglycemia; format: in vivo, human; conditions: after overnight fast, after 14 days of therapy
From the text: Following an overnight fast, patients in the 14-day study were challenged with insulin twice: prior to the start of dosing, and after 14 days of placebo or tripro-amylin therapy. The insulin challenge was designed to pharmacologically induce hypoglycemia in a controlled and reproducible manner.

[5] = 30 micrograms 3 times daily, 18 patients starting study
[6] = 100 micrograms 3 times daily, 23 patients starting study
[7] = 300 micrograms 3 times daily, 21 patients starting study

Compound: CC[C@H](C)[C@H](NC(=O)[C@H](C)NC(=O)CNC(=O)[C@H](Cc1ccccc1)NC(=O)[C@H](CC(N)=O)NC(=O)[C@H](CC(N)=O)NC(=O)[C@H](CO)NC(=O)[C@H](CO)NC(=O)[C@H](Cc1c[nH]cn1)NC(=O)[C@@H](NC(=O)[C@H](CC(C)C)NC(=O)[C@H](Cc1ccccc1)NC(=O)[C@H](CC(N)=O)NC(=O)[C@H](C)NC(=O)[C@H](CC(C)C)NC(=O)[C@H](CCCNC(=N)N)NC(=O)[C@H](CCC(N)=O)NC(=O)[C@@H](NC(=O)[C@H](C)NC(=O)[C@@H]1CSSC[C@H](NC(=O)[C@@H](N)CCCCN)C(=O)N[C@@H](CC(N)=O)C(=O)N[C@@H]([C@@H](C)O)C(=O)N[C@@H](C)C(=O)N[C@@H]([C@@H](C)O)C(=O)N1)[C@@H](C)O)C(C)C)C(=O)N[C@@H](CC(C)C)C(=O)N[C@@H](CO)C(=O)N[C@@H](CO)C(=O)N[C@H](C(=O)N[C@@H](CC(N)=O)C(=O)N[C@H](C(=O)NCC(=O)N[C@@H](CO)C(=O)N[C@@H](CC(N)=O)C(=O)N[C@H](C(=O)N[C@@H](Cc1ccc(O)cc1)C(N)=O)[C@@H](C)O)C(C)C)[C@@H](C)O [human amylin]
- EC50 ([1]; 4 h): 0.438 nM

Compound: insulin: recombinant human insulin (Humulin-R, Eli Lilly) in soleus assay; Humulin-Ultralente for daily treatment of diabetic rats
- Insulin dose response: Maximal response, Mean ([1]; [amylin] 0 nM (nominal)): 4.09 μmol/g wet tissue/hr
- EC50 ([1]; [amylin] 0 nM (nominal), read-out: Insulin dose response: EC50, Mean ± log SE (converted)): 1.16 ± 0.1 nM
- Insulin dose response: Maximal response, Mean ([1]; [amylin] 3 nM (nominal)): 3.45 μmol/g wet tissue/hr
- EC50 ([1]; [amylin] 3 nM (nominal), read-out: Insulin dose response: EC50, Mean ± log SE (converted)): 0.78 ± 0.12 nM
- Insulin dose response: Maximal response, Mean ([1]; [amylin] 10 nM (nominal)): 3.12 μmol/g wet tissue/hr
- EC50 ([1]; [amylin] 10 nM (nominal), read-out: Insulin dose response: EC50, Mean ± log SE (converted)): 1.52 ± 0.15 nM
- Insulin dose response: Maximal response, Mean ([1]; [amylin] 30 nM (nominal)): 2.13 μmol/g wet tissue/hr
- EC50 ([1]; [amylin] 30 nM (nominal), read-out: Insulin dose response: EC50, Mean ± log SE (converted)): 1.33 ± 0.2 nM
- Insulin dose response: Maximal response, Mean ([1]; [amylin] 100 nM (nominal)): 1.15 μmol/g wet tissue/hr
- Insulin dose response: Maximal response, Mean ([1]; [amylin] 300 nM (nominal)): 0.93 μmol/g wet tissue/hr
- EC50 ([1]; absence of amylin, pooled from 7 assays, ±0.07 log units, read-out: EC50 of the insulin response): 1.05 nM
- increment in rate of glycogen labelling ([1]; insulin dose response in absence of amylin, pooled from 7 assays): 3.7 fold
- decrease in liver glycogen compared to normal rats ([2]; fed state): ~35%
- liver glycogen concentration ([2]; normal rats 8.6 mg/g): 5.6 mg/g

Compound: CC[C@H](C)[C@H](NC(=O)[C@@H]1CCCN1C(=O)CNC(=O)[C@H](Cc1ccccc1)NC(=O)[C@H](CC(N)=O)NC(=O)[C@H](CC(N)=O)NC(=O)[C@H](CO)NC(=O)[C@H](CO)NC(=O)[C@H](Cc1c[nH]cn1)NC(=O)[C@@H](NC(=O)[C@H](CC(C)C)NC(=O)[C@H](Cc1ccccc1)NC(=O)[C@H](CC(N)=O)NC(=O)[C@H](C)NC(=O)[C@H](CC(C)C)NC(=O)[C@H](CCCNC(=N)N)NC(=O)[C@H](CCC(N)=O)NC(=O)[C@@H](NC(=O)[C@H](C)NC(=O)[C@@H]1CSSC[C@H](NC(=O)[C@@H](N)CCCCN)C(=O)N[C@@H](CC(N)=O)C(=O)N[C@@H]([C@@H](C)O)C(=O)N[C@@H](C)C(=O)N[C@@H]([C@@H](C)O)C(=O)N1)[C@@H](C)O)C(C)C)C(=O)N[C@@H](CC(C)C)C(=O)N1CCC[C@H]1C(=O)N1CCC[C@H]1C(=O)N[C@H](C(=O)N[C@@H](CC(N)=O)C(=O)N[C@H](C(=O)NCC(=O)N[C@@H](CO)C(=O)N[C@@H](CC(N)=O)C(=O)N[C@H](C(=O)N[C@@H](Cc1ccc(O)cc1)C(N)=O)[C@@H](C)O)C(C)C)[C@@H](C)O [tripro-amylin, ^25,28,29 Pro-human-amylin]
- side effect profile, measures of safety ([3]; 14-day tests): all measures of safety were satisfactory
- Patients reporting any gastrointestinal symptoms [3, 5]: 5
- Patients reporting nausea for more than 7 days [3, 5]: 1
- Patients reporting other events resulting in early discontinuation [3, 5]: 0
- Patients who withdrew from the study with nausea [3, 5]: 1
- Patients reporting any gastrointestinal symptoms [3, 6]: 13
- Patients reporting nausea for more than 7 days [3, 6]: 8
- Patients reporting other events resulting in early discontinuation [3, 6]: 0
- Patients who withdrew from the study with nausea [3, 6]: 1
- Patients reporting any gastrointestinal symptoms [3, 7]: 20
- Patients reporting nausea for more than 7 days [3, 7]: 11
- Patients reporting other events resulting in early discontinuation [3, 7]: 0
- Patients who withdrew from the study with nausea [3, 7]: 8
- patients who reported nausea and also experienced vomiting on one or more occasions ([3]; mid- and high-dose groups): About 20%
- glucose response to insulin challenge compared to placebo group [4]: did not measurably alter the glucose reponse
